Source: patent US20230309522A1, “ANIMAL MODEL, METHODS FOR MAKING AND USING THEREOF, AND COMPOSITION FOR TREATING ATAXIA” (priority 2022, published 2023)
Marks after values point to notes of the source that are not given here.

Key:
Assay type in all cases: in vivo, mouse
C57BU6J mice [1] = assay: Determining the least concentration of 3AP for induction of ataxia-like behaviors: survival time
Method: Six to seven-week-old C57BU6J and B6.129-Arnt1^tm1Bra/J (Bmal1 gene-deficient mice) male mice were used for all experiments described hereinafter. All experiments were performed on mice anesthetized by an intraperitoneal (i.p.) injection of 100 mg ketamine/kg and 20 mg xylazine/kg, based on their body weights.
In this example, a chemically-induced ataxia animal model was established upon systematic application of 3AP^19,20. Besides systematic (i.e. intraperitoneal, i.p., injection), local injection [in cerebellum, coordinate (Bregma): −7.08, 0, −2.1] of 3AP in C57BU6J mice could also be used to generate the chemically-induced ataxia animal models^23-25. Initially, different concentrations of 3AP were applied for determining the least concentration of 3AP for life-long induction of ataxia-like behaviors (Table 1).

C57BU6J mice [2] = assay: Footprint test on 3AP-induced ataxia mice
From the text: (§1) Four different behavior tests were used in the present disclosure: footprint, irregular ladder, rotarod and body balance (elevated beam) tests. These behavior tests have been widely used for detection of ataxia^40-42. Two different time durations were used to differentiate the peak and trough expressions of the Bmal1 gene. i.e., daytime described herein refers to seven hours later after light exposure (˜2 pm); nighttime described herein refers to four hours later after dim light ([…]). These behavior tests were carried out at daytime (˜2 pm) and nighttime (˜11 pm), given the differential expression of Bmal1 in cerebellum having the highest level at ˜2 pm and the lowest level at ˜11 pm.
Footprint test: Three measurements were included: i) front paw distance; ii) hind paw distance; and iii) stride. The footprint behavior tool was custom-made to have a narrow, foot-printable glass plate with the length of 85 cm and the width of 5 cm. Each paw distance was measured with footsteps printed during the walking across the narrow road.

C57BU6J mice [3] = assay: Irregular ladder test on 3AP-induced ataxia mice
From the text: as §1
Irregular ladder test: A mouse was requested to walk through an irregularly arranged ladder with a distance of 85 cm and a width of 5 cm. Every single slip during walk steps was counted as a failure of gait and balance measurement.

C57BU6J mice [4] = assay: Rotarod test on 3AP-induced ataxia mice; details: for motor learning, percentage change in rotarod performance: 3AP local; for rotarod-based motor behavior: 3AP-induced ataxia mice, FIG. 1C
From the text: as §1
Rotarod test: It has been widely used in determining general motor skills. In brief, mice walked on the rotarod with a width of 5 cm, a height of 20 cm and a diameter of 3 cm of rolling rods. The total time for mice to sustain on the rotarod in increasing speeds at a unit of revolution per minute (rpm) was taken for a measurement of motor skills such as balance and gait functions. Motor learning was calculated as a percentage change in the performance (at a maximum speed) over 5 min, 10 min or 15 min blocks sequentially.

C57BU6J mice [5] = assay: Elevated beam test on 3AP-induced ataxia mice
From the text: as §1
Elevated beam test: Every single slip was counted during the walking^43. Mice were requested to walk through a wall with a distance of 40 cm, a height of 16 cm and a width of 0.5 cm. All tests were conducted in a quiet environment without noise and bright light disturbance.

Calbindin = assay: Immunohistochemistry of cerebellar tissue, relative calbindin intensity; details: 3AP-injected mice, relative to WT 1.00, FIG. 3C
Method: (§2) The cerebellar tissue was isolated from anesthetized mice (six weeks old) and fixed with paraformaldehyde in […] (Thermofisher scientific, USA) and overnight at 4° C. The cerebellar tissue was then dehydrated by being incubated with PBS containing 30% sucrose at 4° C. then embedded in optimal cutting temperature (OCT) medium (Thermofisher scientific, USA) and frozen by using dry ice. The frozen tissues were cut with a cryostat (Thermo HM525NX Cryostat with UV Disinfection, Thermofisher scientific, USA) at 20 µm thickness and slices were placed on glass slides (Thermofisher scientific, USA). For immunohistochemical analysis, cerebellar tissue specimens were washed with PBS for 30 min and blocked with 10% bovine serum albumin (Sigma-Aldrich, USA) in PBST for 30 min at room temperature and then incubated with respective primary antibodies (Calbindin [8 μg/mL]: Invitrogen, USA; Tyrosine Hydrolase [1:400]: Invitrogen. USA) for overnight at 4° C. The specimens were further incubated with secondary antibodies (1:1500, Invitrogen. USA) for overnight at 4° C. […] The DAPI intensity and primary antibody (Calbindin or Tyrosine Hydrolase) intensity were recorded. The relative primary antibody intensity was calculated based on the following formula: […]

Tyrosine Hydrolase (TH) = assay: Immunohistochemistry of substantia nigra compacta, Tyrosine Hydrolase expression; details: 3AP ataxia model vs wildtype, FIGS. 6A and 6B
Method: as §2

Bmal1 = assay: Quantitative RT-PCR of brain regions, Bmal1 mRNA
Method: (§3) To prepare RNA by RT-PCR, mice were deeply anesthetized with isoflurane inhalation. […] Total RNA was extracted by TRIzol reagent-based procedure (Thermofisher scientific, USA) and quantified by NanoDrop 2000 spectrophotometer ([…], USA). The total RNA obtained (20 μg) was reverse-transcribed to synthesize complementary DNA (cDNA) using a first-strand cDNA synthesis kit (Takara. Japan). Quantitative assays were performed on each cDNA using the primers listed in Table 3 with SYBR® Premix Ex Taq™ (Takara, Japan) in the given cycling condition (95° C. for 30 seconds, 32 cycles of 95° C. for 5 seconds and 60° C. for 30 seconds), as provided by the manufacturer's instruction.

Clock = assay: Quantitative RT-PCR of brain regions, Clock mRNA
Method: as §3

Cry1 = assay: Quantitative RT-PCR of brain regions, Cry1 mRNA
Method: as §3

Per1 = assay: Quantitative RT-PCR of brain regions, Per1 mRNA
Method: as §3

CC(=O)c1cccnc1 [3AP, 3-acetyl pyridine]
Survival time (C57BU6J mice [1]; 0.05 mg/kg, stereotaxic local injection to the cerebellum): No ataxia | Survival time (C57BU6J mice [1]; 0.1 mg/kg, stereotaxic local injection to the cerebellum): >120 h | Survival time (C57BU6J mice [1]; 0.15 mg/kg, stereotaxic local injection to the cerebellum): No survive | Survival time (C57BU6J mice [1]; 0.2 mg/kg, stereotaxic local injection to the cerebellum): No survive | Survival time (C57BU6J mice [1]; 25 mg/kg, intraperitoneal systematic injection): No ataxia | Survival time (C57BU6J mice [1]; 35 mg/kg, intraperitoneal systematic injection): >120 h | Survival time (C57BU6J mice [1]; 45 mg/kg, intraperitoneal systematic injection): 24 h | Survival time (C57BU6J mice [1]; 50 mg/kg, intraperitoneal systematic injection): 8 h | Survival time (C57BU6J mice [1]; 65 mg/kg, intraperitoneal systematic injection): 3 h | Survival time (C57BU6J mice [1]; 70 mg/kg, intraperitoneal systematic injection): 0.25 h | front paw distance (C57BU6J mice [2]; 35 mg/kg 3AP-injected mice, FIG. 1A, WT 1.084): 0.832±0.112 cm | hind paw distance (C57BU6J mice [2]; 35 mg/kg 3AP-injected mice, FIG. 1A, WT 2.09): 4.67±0.208 cm | stride (C57BU6J mice [2]; 35 mg/kg 3AP-injected mice, FIG. 1A, WT 5.27): 1.11±0.088 cm | hind paw distance (C57BU6J mice [2]; local 3AP-intoxicated mice without Bmal1 viral vector, FIG. 4C, wildtype 2.13): 4.28±0.314 cm | stride (C57BU6J mice [2]; local 3AP-intoxicated mice without Bmal1 viral vector, FIG. 4D, wildtype 5.02): 1.10±0.124 cm | front paw distance (C57BU6J mice [2]; local 3AP-intoxicated mice without Bmal1 viral vector, FIG. 4E, wildtype 1.12): 1.10±0.053 cm | number of slips, irregular ladder (C57BU6J mice [3]; 3AP-induced ataxia mice, FIG. 1B, WT 1.61): 8.92±0.178 | number of slips, irregular ladder (C57BU6J mice [3]; local 3AP-intoxicated mice without Bmal1 viral vector, FIG. 4F, wildtype 0.87): 11.2±0.075 | performance in the rotarod test (C57BU6J mice [4]; 3AP local injection in the cerebellum, daytime, FIG. 2A, WT 29.32): 14.32±1.02 rpm | motor learning, percentage change in rotarod performance (C57BU6J mice [4]; training time 5 min, Wild Type 76.4): −4.8 ± 4.22% | motor learning, percentage change in rotarod performance (C57BU6J mice [4]; training time 10 min, Wild Type 88.6): −4.1 ± 7.32% | motor learning, percentage change in rotarod performance (C57BU6J mice [4]; training time 15 min, Wild Type 95.46): −4.5 ± 4.12% | rotarod-based motor behavior (C57BU6J mice [4]; day, WT day 28.00): 14.57±1.38 rpm | rotarod-based motor behavior (C57BU6J mice [4]; night, WT night 17.25): 15.22±0.78 rpm | rotarod performance (C57BU6J mice [4]; local 3AP-intoxicated mice without Bmal1 viral vector, FIG. 4G, wildtype 30): 14.2±0.130 rpm | slips in the elevated beam test (C57BU6J mice [5]; 3AP local injection in the cerebellum, FIG. 2B, WT 0.87): 10.46±0.92 | number of slips, elevated beam (C57BU6J mice [5]; 3AP-induced ataxia mice, day, FIG. 1D, WT day 0.93): 10.23±0.23 | number of slips, elevated beam (C57BU6J mice [5]; 3AP-induced ataxia mice, night, FIG. 1D, WT night 9.92): 10.24±0.23 | number of slips, elevated beam (C57BU6J mice [5]; local 3AP-intoxicated mice without Bmal1 viral vector, FIG. 4H, wildtype 0.85): 10.7±0.176 | expression of calbindin in the Purkinje cell layer (relative intensity) (Calbindin): 0.123±0.052 | Tyrosine Hydrolase (TH) expression in substantia nigra compacta (SNc) (Tyrosine Hydrolase (TH)): similarly expressed | Relative level of mRNA, Bmal1 (Bmal1; 25 mg 3AP, Cerebellum): 0.82 | Relative level of mRNA, Bmal1 (Bmal1; 25 mg 3AP, Inferior Olive): 0.85 | Relative level of mRNA, Bmal1 (Bmal1; 25 mg 3AP, Motor cortex): 0.93 | Relative level of mRNA, Bmal1 (Bmal1; 25 mg 3AP, Striatum): 0.94 | Relative level of mRNA, Bmal1 (Bmal1; 35 mg 3AP, Cerebellum, 0.00 = extremely low concentration or the absence of the gene tested): 0.00*** | Relative level of mRNA, Bmal1 (Bmal1; 35 mg 3AP, Inferior Olive, 0.00 = extremely low concentration or the absence of the gene tested): 0.00*** | Relative level of mRNA, Bmal1 (Bmal1; 35 mg 3AP, Motor cortex, 0.00 = extremely low concentration or the absence of the gene tested): 0.00*** | Relative level of mRNA, Bmal1 (Bmal1; 35 mg 3AP, Striatum, 0.00 = extremely low concentration or the absence of the gene tested): 0.00*** | mRNA expression of Bmal1 (Bmal1; local 3AP-intoxicated mice vs wildtype control, daytime, FIG. 3B): far reduced | Relative level of mRNA, Clock (Clock; 25 mg 3AP, Cerebellum): 0.83 | Relative level of mRNA, Clock (Clock; 25 mg 3AP, Inferior Olive): 0.86 | Relative level of mRNA, Clock (Clock; 25 mg 3AP, Motor cortex): 0.93 | Relative level of mRNA, Clock (Clock; 25 mg 3AP, Striatum): 0.77 | Relative level of mRNA, Clock (Clock; 35 mg 3AP, Cerebellum): 0.94 | Relative level of mRNA, Clock (Clock; 35 mg 3AP, Inferior Olive): 0.59* | Relative level of mRNA, Clock (Clock; 35 mg 3AP, Motor cortex): 0.82 | Relative level of mRNA, Clock (Clock; 35 mg 3AP, Striatum): 0.87 | Relative level of mRNA, Cry1 (Cry1; 25 mg 3AP, Cerebellum): 0.82 | Relative level of mRNA, Cry1 (Cry1; 25 mg 3AP, Inferior Olive): 0.74 | Relative level of mRNA, Cry1 (Cry1; 25 mg 3AP, Motor cortex): 0.87 | Relative level of mRNA, Cry1 (Cry1; 25 mg 3AP, Striatum): 0.91 | Relative level of mRNA, Cry1 (Cry1; 35 mg 3AP, Cerebellum): 0.66 | Relative level of mRNA, Cry1 (Cry1; 35 mg 3AP, Inferior Olive): 0.70 | Relative level of mRNA, Cry1 (Cry1; 35 mg 3AP, Motor cortex): 0.68 | Relative level of mRNA, Cry1 (Cry1; 35 mg 3AP, Striatum): 0.89 | Relative level of mRNA, Per1 (Per1; 25 mg 3AP, Cerebellum): 0.81 | Relative level of mRNA, Per1 (Per1; 25 mg 3AP, Inferior Olive): 0.88 | Relative level of mRNA, Per1 (Per1; 25 mg 3AP, Motor cortex): 0.87 | Relative level of mRNA, Per1 (Per1; 25 mg 3AP, Striatum): 0.76 | Relative level of mRNA, Per1 (Per1; 35 mg 3AP, Cerebellum): 0.77 | Relative level of mRNA, Per1 (Per1; 35 mg 3AP, Inferior Olive): 0.90 | Relative level of mRNA, Per1 (Per1; 35 mg 3AP, Motor cortex): 0.87 | Relative level of mRNA, Per1 (Per1; 35 mg 3AP, Striatum): 0.86
